Data published in ChEMBL document CHEMBL3627674, “Discovery of wrightiadione as a novel template for the TrkA kinase inhibitors” (Bioorg Med Chem Lett, 2015).

These molecules were tested against High affinity nerve growth factor receptor (Homo sapiens, UniProt P04629) (assay: Inhibition of TrkA (unknown origin) by radiometric analysis in presence of [gamma-33P]-ATP).
Sequence of High affinity nerve growth factor receptor (P04629 whole entry): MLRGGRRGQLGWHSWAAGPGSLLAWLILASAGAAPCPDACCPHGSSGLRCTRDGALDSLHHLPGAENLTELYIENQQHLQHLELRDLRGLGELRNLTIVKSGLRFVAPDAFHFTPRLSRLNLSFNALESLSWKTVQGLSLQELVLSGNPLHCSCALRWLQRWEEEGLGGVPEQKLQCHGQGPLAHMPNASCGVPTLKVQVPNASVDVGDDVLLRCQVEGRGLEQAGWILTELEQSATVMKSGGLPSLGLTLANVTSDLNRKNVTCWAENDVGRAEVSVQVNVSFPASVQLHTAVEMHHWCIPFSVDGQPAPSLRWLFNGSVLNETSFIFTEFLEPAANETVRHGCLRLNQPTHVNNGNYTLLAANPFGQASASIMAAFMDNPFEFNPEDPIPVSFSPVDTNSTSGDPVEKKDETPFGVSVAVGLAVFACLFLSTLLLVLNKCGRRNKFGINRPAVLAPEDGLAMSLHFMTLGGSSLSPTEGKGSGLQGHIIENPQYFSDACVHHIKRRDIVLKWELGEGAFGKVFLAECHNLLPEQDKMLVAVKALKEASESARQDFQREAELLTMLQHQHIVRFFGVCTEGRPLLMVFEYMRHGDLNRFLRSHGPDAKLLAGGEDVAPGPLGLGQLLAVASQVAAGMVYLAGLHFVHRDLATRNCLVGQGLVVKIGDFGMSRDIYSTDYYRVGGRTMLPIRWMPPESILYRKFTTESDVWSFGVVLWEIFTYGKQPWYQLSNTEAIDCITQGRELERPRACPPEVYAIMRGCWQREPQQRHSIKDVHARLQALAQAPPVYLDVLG

SMILES | IC50
Cn1c2c(c(=O)c3ccc(Cl)cc31)-c1ccccc1C2=O | 88.5 µM
Cc1ccc2c(c1)C(=O)c1c-2c(=O)c2ccccc2n1C | 47.2 µM
COc1ccc2c(c1)C(=O)c1c-2c(=O)c2ccccc2n1Cc1ccccc1 | 16.4 µM
COc1ccc2c(c1)C(=O)c1c-2c(=O)c2ccccc2n1C | 6.6 µM
Cn1c2c(c(=O)c3ccccc31)-c1ccccc1C2=O | 28.9 µM
Cc1cccc2c1C(=O)c1c-2c(=O)c2ccccc2n1C | 73.3 µM

The remaining molecules from weak to strong by IC50, led by results:

IC50 | SMILES
209 µM | COc1cccc2c1-c1c(n(C)c3ccccc3c1=O)C2=O
141 µM | Cn1c2c(c(=O)c3ccccc31)-c1cccc(O)c1C2=O
117 µM | Cn1c2c(c(=O)c3ccc(C(F)(F)F)cc31)-c1ccccc1C2=O
16.5 µM | CCOC(=O)n1c2c(c(=O)c3ccccc31)-c1ccccc1C2=O
14.4 µM | COc1ccc2c(c1)-c1c(n(C)c3ccccc3c1=O)C2=O
10.3 µM | O=C1c2ccccc2-c2c1n(Cc1ccccc1)c1ccccc1c2=O

These molecules were tested against Serine/threonine-protein kinase PLK3 (Homo sapiens, UniProt Q9H4B4) (assay: Inhibition of PLK3 (unknown origin) by radiometric analysis in presence of [gamma-33P]-ATP).
Sequence of Serine/threonine-protein kinase PLK3 (Q9H4B4 whole entry): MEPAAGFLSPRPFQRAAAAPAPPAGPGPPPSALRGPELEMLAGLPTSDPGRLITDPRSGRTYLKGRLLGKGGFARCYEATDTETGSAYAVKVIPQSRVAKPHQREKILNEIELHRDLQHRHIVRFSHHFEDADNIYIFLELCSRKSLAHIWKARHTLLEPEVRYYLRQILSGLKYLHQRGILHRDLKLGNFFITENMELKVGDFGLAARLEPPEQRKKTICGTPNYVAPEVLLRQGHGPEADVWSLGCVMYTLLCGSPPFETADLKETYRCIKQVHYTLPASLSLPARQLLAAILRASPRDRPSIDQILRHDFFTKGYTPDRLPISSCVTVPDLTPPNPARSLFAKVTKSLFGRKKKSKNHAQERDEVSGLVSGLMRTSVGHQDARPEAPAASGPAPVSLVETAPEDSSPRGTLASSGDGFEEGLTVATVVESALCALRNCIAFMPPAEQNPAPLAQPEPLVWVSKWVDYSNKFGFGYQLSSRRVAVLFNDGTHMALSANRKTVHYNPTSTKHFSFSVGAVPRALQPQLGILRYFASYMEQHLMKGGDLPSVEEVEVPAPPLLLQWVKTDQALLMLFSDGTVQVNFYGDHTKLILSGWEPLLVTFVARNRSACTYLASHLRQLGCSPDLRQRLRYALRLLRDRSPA

IC50 | SMILES
> 200 µM | Cn1c2c(c(=O)c3ccccc31)-c1ccccc1C2=O
